Where two headings read alike, the source gives them in different places.
System: T1, IiOMT2
T1 construct: N-terminal His6-SUMO tag kept (pE-SUMO), E. coli Rosetta (DE3), Ni-NTA
Assay: O-methyltransferase assay, UPLC, Michaelis-Menten fit
Type: biochemical, Isatis indigotica
Conditions: 480 μM SAM, Tris-HCl pH 9.0, 45 °C
From the text: O-methyltransferase assay, UPLC, Michaelis-Menten fit on IiOMT2

SMILES	Km (read-out: Isoorientin / IiOMT2)	Km (read-out: Luteolin / IiOMT2)
O=c1cc(-c2ccc(O)c(O)c2)oc2cc(O)c([C@@H]3O[C@H](CO)[C@@H](O)[C@H](O)[C@H]3O)c(O)c12 [compound 1, isoorientin]	62.1 ± 16.1 µM	–
O=c1cc(-c2ccc(O)c(O)c2)oc2cc(O)cc(O)c12 [compound 2, luteolin]	–	77 ± 12.6 µM
